Measurements: patent US20260242478A1, “ANTIBODIES FOR TARGETING PSMA AND CD28 AND USES THEREOF” (Janux Therapeutics, Inc., priority 2023, published 2026)
pEC50, pIC50: −log10 of the molar value. Values belong to the sequence of their own block, whether it stands above or below them.

Experiments:
[1] = molecular target: anti-CD28 scFv (disulfide) (SEQ ID NO: 10); assay: anti-CD28 scFv (disulfide) binding to peptides, ELISA; settings: Table 27
Protocol: Peptides were evaluated for their ability to bind to ant-CD28 Fab (SEQ ID NOs: 696.697) or anti-CD28 scFv (disulfide) (SEQ ID NO: 10) in a standard ELISA format as described above.

[2] = molecular target: anti-CD28 Fab (SEQ ID NOs: 696, 697); assay: anti-CD28 Fab binding to peptides, ELISA; settings: anti-CD28 Fab
[3] = molecular target: PSMA Fab (SEQ ID NOs: 19, 20) binding to the PSMA antigen; assay: Inhibition of PSMA Fab binding to PSMA by peptides, competition ELISA (incl. alanine scanning); design: key to Mutation Status: tolerant (T); somewhat tolerant (ST); intolerant (IT)
Protocol: PSMA Fab fixed at 0.3 nanomolar (nM) concentration was pre-incubated with 0-100 micromolar (μM) titrated peptides. After a short pre-incubation period, the mixture of titrated peptide with fixed PSMA Fab were added to the PSMA antigen coated plates. After a short incubation on the plates, bound PSMA Fab was detected with a standard horse radish peroxidase conjugated secondary antibody.
The tables also designate each alanine mutation as tolerant (T), somewhat tolerant (ST), or intolerant (IT) based on changes in binding inhibition ability relative to the non-mutated peptide. Cys-5 and Cys-11 of peptide-179 and peptide-180 were not mutated.

[4] = molecular target: PSMA Fab (SEQ ID NOs: 19, 20); assay: PSMA Fab binding to peptides, ELISA; settings: PSMA Fab binding to biotinylated peptide, ELISA
Protocol: Peptides of Table 9 were evaluated for their ability to bind to PSMA Fab in a standard enzyme linked immunosorbent assay (ELISA) format. […] PSMA Fab diluted in buffer was then added to the peptide captured plates. Bound antibody was detected using a standard horse radish peroxidase conjugate secondary antibody.

[5] = Table 39, PSMA Fab fixed at 0.3 nM, peptide 0-100 μM
[6] = Table 38, PSMA Fab fixed at 0.3 nM, peptide 0-100 μM
[7] = Table 41, alanine scanning of Peptide-180, change in binding inhibition relative to non-mutated peptide
[8] = Table 41, competition binding ELISA, alanine scanning sequences of Peptide-180
[9] = Table 40, alanine scanning of Peptide-179, change in binding inhibition relative to non-mutated peptide

anti-CD28 Fab (SEQ ID NOs: 696, 697), sequence (as listed by the source): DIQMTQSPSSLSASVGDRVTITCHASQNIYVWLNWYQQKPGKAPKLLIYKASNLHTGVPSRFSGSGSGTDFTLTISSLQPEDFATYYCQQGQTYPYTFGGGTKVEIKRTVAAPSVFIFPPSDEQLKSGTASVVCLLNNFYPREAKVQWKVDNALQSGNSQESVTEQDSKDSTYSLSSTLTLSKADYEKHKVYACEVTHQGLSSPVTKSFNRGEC
anti-CD28 Fab (SEQ ID NOs: 696, 697), sequence (as listed by the source): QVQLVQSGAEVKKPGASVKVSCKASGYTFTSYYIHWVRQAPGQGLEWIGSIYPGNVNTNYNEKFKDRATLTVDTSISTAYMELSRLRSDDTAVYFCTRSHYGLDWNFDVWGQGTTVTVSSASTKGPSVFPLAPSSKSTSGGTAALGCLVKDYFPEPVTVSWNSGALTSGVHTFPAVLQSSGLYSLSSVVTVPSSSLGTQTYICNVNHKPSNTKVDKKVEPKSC
anti-CD28 scFv (disulfide) (SEQ ID NO: 10), sequence (as listed by the source): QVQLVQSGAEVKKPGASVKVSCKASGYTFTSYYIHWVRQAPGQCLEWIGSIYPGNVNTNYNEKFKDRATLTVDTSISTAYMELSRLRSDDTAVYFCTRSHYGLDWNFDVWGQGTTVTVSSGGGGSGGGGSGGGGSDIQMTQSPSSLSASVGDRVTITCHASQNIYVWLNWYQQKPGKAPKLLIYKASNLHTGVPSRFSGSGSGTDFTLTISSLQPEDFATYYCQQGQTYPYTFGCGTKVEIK
PSMA Fab (SEQ ID NOs: 19, 20) binding to the PSMA antigen, sequence (as listed by the source): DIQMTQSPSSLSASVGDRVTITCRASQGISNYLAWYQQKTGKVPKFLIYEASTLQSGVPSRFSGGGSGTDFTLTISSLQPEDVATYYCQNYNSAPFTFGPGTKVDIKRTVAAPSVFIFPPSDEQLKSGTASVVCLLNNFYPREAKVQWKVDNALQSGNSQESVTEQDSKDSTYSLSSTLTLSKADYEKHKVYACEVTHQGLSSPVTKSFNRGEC
PSMA Fab (SEQ ID NOs: 19, 20) binding to the PSMA antigen, sequence (as listed by the source): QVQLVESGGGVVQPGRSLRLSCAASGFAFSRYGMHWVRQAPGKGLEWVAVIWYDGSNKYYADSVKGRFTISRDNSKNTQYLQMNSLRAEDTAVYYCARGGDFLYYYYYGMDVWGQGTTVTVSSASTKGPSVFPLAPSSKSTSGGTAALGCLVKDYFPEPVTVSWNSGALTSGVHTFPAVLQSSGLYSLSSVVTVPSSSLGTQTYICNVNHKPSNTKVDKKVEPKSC
PSMA Fab (SEQ ID NOs: 19, 20) binding to the PSMA antigen, sequence (Q04609 whole entry partner): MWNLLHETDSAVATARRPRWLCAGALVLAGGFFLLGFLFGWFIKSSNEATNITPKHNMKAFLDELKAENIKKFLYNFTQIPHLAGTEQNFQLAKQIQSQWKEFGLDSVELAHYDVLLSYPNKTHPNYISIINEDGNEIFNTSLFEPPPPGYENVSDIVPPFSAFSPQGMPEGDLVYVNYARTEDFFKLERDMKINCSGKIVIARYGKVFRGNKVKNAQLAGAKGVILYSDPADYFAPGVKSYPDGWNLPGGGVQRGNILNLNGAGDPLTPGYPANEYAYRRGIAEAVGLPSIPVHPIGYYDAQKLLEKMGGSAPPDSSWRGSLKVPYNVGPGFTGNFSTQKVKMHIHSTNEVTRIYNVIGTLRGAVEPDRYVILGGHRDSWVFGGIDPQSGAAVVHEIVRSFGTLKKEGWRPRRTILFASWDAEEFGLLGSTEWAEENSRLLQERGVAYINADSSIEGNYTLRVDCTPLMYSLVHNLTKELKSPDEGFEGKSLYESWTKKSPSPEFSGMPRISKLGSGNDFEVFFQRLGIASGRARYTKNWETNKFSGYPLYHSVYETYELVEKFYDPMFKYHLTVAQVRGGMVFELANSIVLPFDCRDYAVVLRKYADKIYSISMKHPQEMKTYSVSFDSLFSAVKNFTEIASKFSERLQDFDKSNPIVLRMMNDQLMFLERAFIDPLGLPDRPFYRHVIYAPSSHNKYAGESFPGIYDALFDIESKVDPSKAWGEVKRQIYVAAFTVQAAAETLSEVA

Sequence: WCWDYKLWVPMTCP [Peptide-85]
pEC50 [1]: < 6.00
pEC50 ([2]; Table 24): < 6.00

Sequence: DCWWMFESYPGRCI [Peptide-86]
pEC50 [1]: < 6.00
pEC50 ([2]; Table 24): < 6.00

Sequence: PLCGTEEVWWECRL [Peptide-197]
pIC50 [3, 5]: < 4.00

Sequence: YCEGHSPEYILKCL [Peptide-117]
pEC50 ([2]; Table 26): 7.96

Sequence: ECHWSMWAVGHACF [Peptide-83]
pEC50 [1]: < 6.00
pEC50 ([2]; Table 24): < 6.00

Sequence: YCEGHSQENIWKCL [Peptide-124]
pEC50 ([2]; Table 26): 7.55

Sequence: YCEGHEGIYFWKCL [Peptide-119]
pEC50 ([2]; Table 26): 6.89

Sequence: IAVLCQANWMCAGF [Peptide-255]
Mutation Status [3, 7]: IT
pIC50 [3, 8]: < 4.00

Sequence: HCEFHDYQSCDVLY [Peptide-211]
pIC50 [3, 5]: < 4.00

Sequence: AAVLCQPNWMCAGF [Peptide-251]
Mutation Status [3, 7]: T

Sequence: IAVLCQPNAMCAGF [Peptide-257]
Mutation Status [3, 7]: IT
pIC50 [3, 8]: < 4.00

Sequence: IAVLCQPNWMCAGA [Peptide-260]
Mutation Status [3, 7]: ST

Sequence: HCSGHHWLQVWKCF [Peptide-130]
pEC50 ([2]; Table 26): < 6.00

Sequence: IAVACQPNWMCAGF [Peptide-253]
Mutation Status [3, 7]: ST

Sequence: LCQWYPKFHWMDCD [Peptide-210]
pIC50 [3, 5]: < 4.00

Sequence: LMKWCAPRWMCAAE [Peptide-245]
Mutation Status [3, 9]: ST

Sequence: LMKWCTPRWMC [Peptide-250]
Mutation Status [3, 9]: T
pIC50 ([3]; Table 40, competition binding ELISA, alanine scanning sequences of Peptide-179): 5.18

Sequence: VEVKCFPLWFCVGL [Peptide-275]
pIC50 ([3]; Table 42, SAR guided optimization phage library of peptide-180): < 4.00

Sequence: YCEGHSSEYIQKCL [Peptide-129]
pEC50 ([2]; Table 26): 7.52

Sequence: IAALCQPNWMCAGF [Peptide-252]
Mutation Status [3, 7]: T

Sequence: IAVLCQPNWACAGF [Peptide-258]
Mutation Status [3, 7]: IT
pIC50 [3, 8]: < 4.00

Second part, led by results:

pEC50 ([2]; Table 25): 8.25
Sequence: TCAAGAAWGWPLCF [Peptide-143]

pEC50 ([2]; Table 25): 8.35
Sequence: TCAAGATWSWPACF [Peptide-142]

pEC50 ([4]; Table 38): < 5.52
Sequence: YECHQGLFHRWCVN [Peptide-185]

Binding EC50 ([4]; Table 37): high background
Sequence: YECHQGLFHRWCVN [Peptide-158]

pEC50 ([4]; Table 38): < 5.52
Sequence: SIPCIPRDWLCPIK [Peptide-182]
pIC50 [3, 6]: < 4.00

pEC50 ([4]; Table 37): < 6.00
Sequence: NCFFAADIHWNFCT [Peptide-169]

pEC50 ([4]; Table 37): < 6.00
Sequence: IRCVGEGHDLVCIF [Peptide-162]

pEC50 ([2]; Table 25): 6.95
Sequence: SCSAGAAYYWPWCL [Peptide-151]

pEC50 ([4]; Table 37): < 6.00
Sequence: SCGWLRGEEFGWWC [Peptide-177]

pEC50 ([2]; Table 25): 8.25
Sequence: LCAAGATYPWPLCL [Peptide-144]

pEC50 ([4]; Table 37): < 6.00
Sequence: EGCLTLVDGRAWCW [Peptide-173]

pEC50 ([4]; Table 38): < 5.52
Sequence: IECAYMTDQRFWCW [Peptide-188]

pEC50 ([2]; Table 25): 7.61
Sequence: TCSAGAAYSWPACF [Peptide-146]

pEC50 ([2]; Table 26): 7.35
Sequence: YCEGHAPEYIGKCL [Peptide-136]

pEC50 ([2]; Table 25): 8.38
Sequence: TCAAGAHYPWPACL [Peptide-154]

pEC50 ([2]; Table 26): < 6.00
Sequence: YCWSHSPPFIKKCY [Peptide-131]

pEC50 ([4]; Table 37): < 6.00
Sequence: HCKFHDYHSWYMCY [Peptide-175]

pEC50 ([2]; Table 25): 7.89
Sequence: TCSAGATYEWPRCL [Peptide-149]

pEC50 ([4]; Table 37): < 6.00
Sequence: HLFCWEGSDRCAWV [Peptide-165]

pEC50 ([4]; Table 38): < 5.52
Sequence: SCGWLRGEEFGWWC [Peptide-190]
pIC50 [3, 6]: < 4.00

pEC50 ([2]; Table 26): 7.49
Sequence: YCEGHLPEYLEKCV [Peptide-133]

pEC50 ([4]; Table 37): < 6.00
Sequence: FCQWIEATNAWLCY [Peptide-170]

pEC50 ([4]; Table 37): < 6.00
Sequence: SCFSFARLEVVPCD [Peptide-159]

pEC50 ([2]; Table 25): 7.80
Sequence: TCSAGATYTWPKCF [Peptide-141]

pEC50 ([2]; Table 25): 7.69
Sequence: TCAAGATYLWPTCL [Peptide-153]

pEC50 ([2]; Table 25): 7.72
Sequence: SCSAGAHYPWPQCF [Peptide-148]

pEC50 ([4]; Table 37): < 6.00
Sequence: SIPCIPRDWLCPIK [Peptide-163]

pEC50 ([2]; Table 25): 7.59
Sequence: LCAAGATYPWPTCL [Peptide-147]

pEC50 ([4]; Table 38): < 5.52
Sequence: FVCWTFGEHIKVCR [Peptide-186]
pIC50 [3, 6]: < 4.00

pEC50 ([4]; Table 38): 8.52
Sequence: PELRCVPFWMCSFN [Peptide-181]
